For one assay, the system named is MMTV-PyMT tumors. The experiment in a line: Drug treatment in vivo of mice bearing MMTV-PyMT tumors. Also on record: species or system mouse. The procedure:
For tumor generation, tumor organoids were transplanted into the 4th mammary fat pad of FVB female mice. Rimadyl (0.067 mg/ml, Zoetis) was administered to mice in the drinking water from 24 h before surgery and for 48 h after surgery. Mice were also treated with temgesic (0.1 mg/kg, Indivior Europe Limited), 1 hr before and 12 h after surgery. Mice were anesthetized with isoflurane (2%, v/v) and their eyes were covered with duratears (Alcon). About 100,000 single cells derived from KB1P organoids or 200,000 single cells derived from MMTV-PyMT organoids were injected in 30 μl of BME (Amsbio, Cat. No. 3533-005-02). Mice were weighed and monitored three times a week after transplantation of tumor organoids. Tumor volume was measured with calipers three times weekly. The researcher performing the measurement of tumor volume was blinded to the treatment group. For survival experiments, endpoint was reached when tumor reached 2000 mm3. For specific experiments, reference is made to the schematic representations of treatment timelines depicted in the figures.
Once tumors were established and reached a size of ˜7×7 mm, mice were randomized into treatment groups with the following drug dosages and timeline: • AC+T treatment: every 14 days, cyclophosphamide (144 mg/kg, administered via intraperitoneal injection), doxorubicin (5 mg/kg, administered via intravenous injection) and docetaxel (25 mg/kg, resuspended in acetonitrile containing 0.1% acetic acid, administered via intravenous injection). Doxorubicin hydrochloride (Adriamycin) and cyclophosphamide (C), when combined in a treatment, are herein referred to as “AC”. Taxanes, as broadly described and disclosed herein, are referred to as “T”. […]

For assay [1], the system named is mouse T cells isolated from the spleen. The experiment in a line: T cell immunofluorescence staining of tubulin and F-actin. Type of assay: cell-based. To be noted: 10 nmol/L, 72 h. The procedure:
Mouse T cells isolated from the spleen and treated with a vehicle control or with docetaxel (10 nmol/L for 72 h) were seeded on glass coverslips pre-coated with poly-D-lysine (Thermo Fisher Cat. No. A3890401) and with αCD3 (eBioscience, Cat. No. 56-0033-80) for 15 min. Next, for immunofluorescence staining of tubulin, cells were extracted for 1 min with pre-warmed (37° C.) extraction buffer composed of MRB80 (80 mmol/L K-PIPES pH 6.8, 4 mmol/L MgCl2, 1 mmol/L EGTA) supplemented with 0.35% Triton X-100 and 0.2% glutaraldehyde, followed by fixation using pre-warmed (37° C.) 4% paraformaldehyde (PFA) in PBS for 10 min. Cells were washed with PBS and permeabilized with 0.2% Triton X-100 in PBS for 5 min. […]
For fluorescence intensity quantifications, samples were imaged on a spinning disk confocal setup consisting of an inverted research microscope Nikon Eclipse Ti-E (Nikon) equipped with the perfect focus system (Nikon), Plan Apo VC 100×N.A. 1.40 oil objective (Nikon), spinning disk Yokogawa CSU-X1-A1 with 405-491-561-642 quad-band mirror (Yokogawa). […]
All images were processed using ImageJ. For quantification of fluorescence intensity, sum projections were made for each z-stack using ImageJ. Next, the raw integrated density of a square box around individual cells of interest per image, as well as an empty region in the field of view, were calculated using ImageJ. […]

Take `CC(=O)O[C@@]12CO[C@@H]1C[C@H](O)[C@@]1(C)C(=O)[C@H](O)C3=C(C)[C@@H](OC(=O)[C@H](O)[C@@H](NC(=O)OC(C)(C)C)c4ccccc4)C[C@@](O)([C@@H](OC(=O)c4ccccc4)[C@H]21)C3(C)C` [docetaxel]: the “anti-tumor effects of docetaxel (survival) upon T cell depletion” value in the assay with MMTV-PyMT tumors (depletion of CD4 alone, CD8 alone or both) is given as “abrogated the anti-tumor effects”. For the same compound, the tumor outgrowth result in the assay on MMTV-PyMT tumors (docetaxel 25 mg/kg intravenous every 14 days vs vehicle) is listed as “delayed tumor outgrowth”. Besides, the “accumulation of mitotic figures in tumors” value with MMTV-PyMT tumors (tumors isolated 24 h after the second docetaxel administration) is recorded as “did not observe an accumulation of mitotic figures”. Besides, in assay [1], the microtubule density entry was “increased microtubule density”.

(Values after patent US20250387481A1, “PRE-TREATED T CELLS FOR USE AS A MEDICAMENT” (STICHTING HET NEDERLANDS KANKER INSTITUUT-ANTONI VAN …, priority 2022, published 2025).)
